The text below walks through data of patent publication US6919377B2, “Cyclohexylamine derivative as subtype selective NMDA receptor antagonists” (Warner Lambert Company LLC, priority 2000, dated 2005).

Where a name gives a salt, the structure may show the parent alone.

NR1a/NR2B, sequence (Q00960 27-1482, other chains not shown): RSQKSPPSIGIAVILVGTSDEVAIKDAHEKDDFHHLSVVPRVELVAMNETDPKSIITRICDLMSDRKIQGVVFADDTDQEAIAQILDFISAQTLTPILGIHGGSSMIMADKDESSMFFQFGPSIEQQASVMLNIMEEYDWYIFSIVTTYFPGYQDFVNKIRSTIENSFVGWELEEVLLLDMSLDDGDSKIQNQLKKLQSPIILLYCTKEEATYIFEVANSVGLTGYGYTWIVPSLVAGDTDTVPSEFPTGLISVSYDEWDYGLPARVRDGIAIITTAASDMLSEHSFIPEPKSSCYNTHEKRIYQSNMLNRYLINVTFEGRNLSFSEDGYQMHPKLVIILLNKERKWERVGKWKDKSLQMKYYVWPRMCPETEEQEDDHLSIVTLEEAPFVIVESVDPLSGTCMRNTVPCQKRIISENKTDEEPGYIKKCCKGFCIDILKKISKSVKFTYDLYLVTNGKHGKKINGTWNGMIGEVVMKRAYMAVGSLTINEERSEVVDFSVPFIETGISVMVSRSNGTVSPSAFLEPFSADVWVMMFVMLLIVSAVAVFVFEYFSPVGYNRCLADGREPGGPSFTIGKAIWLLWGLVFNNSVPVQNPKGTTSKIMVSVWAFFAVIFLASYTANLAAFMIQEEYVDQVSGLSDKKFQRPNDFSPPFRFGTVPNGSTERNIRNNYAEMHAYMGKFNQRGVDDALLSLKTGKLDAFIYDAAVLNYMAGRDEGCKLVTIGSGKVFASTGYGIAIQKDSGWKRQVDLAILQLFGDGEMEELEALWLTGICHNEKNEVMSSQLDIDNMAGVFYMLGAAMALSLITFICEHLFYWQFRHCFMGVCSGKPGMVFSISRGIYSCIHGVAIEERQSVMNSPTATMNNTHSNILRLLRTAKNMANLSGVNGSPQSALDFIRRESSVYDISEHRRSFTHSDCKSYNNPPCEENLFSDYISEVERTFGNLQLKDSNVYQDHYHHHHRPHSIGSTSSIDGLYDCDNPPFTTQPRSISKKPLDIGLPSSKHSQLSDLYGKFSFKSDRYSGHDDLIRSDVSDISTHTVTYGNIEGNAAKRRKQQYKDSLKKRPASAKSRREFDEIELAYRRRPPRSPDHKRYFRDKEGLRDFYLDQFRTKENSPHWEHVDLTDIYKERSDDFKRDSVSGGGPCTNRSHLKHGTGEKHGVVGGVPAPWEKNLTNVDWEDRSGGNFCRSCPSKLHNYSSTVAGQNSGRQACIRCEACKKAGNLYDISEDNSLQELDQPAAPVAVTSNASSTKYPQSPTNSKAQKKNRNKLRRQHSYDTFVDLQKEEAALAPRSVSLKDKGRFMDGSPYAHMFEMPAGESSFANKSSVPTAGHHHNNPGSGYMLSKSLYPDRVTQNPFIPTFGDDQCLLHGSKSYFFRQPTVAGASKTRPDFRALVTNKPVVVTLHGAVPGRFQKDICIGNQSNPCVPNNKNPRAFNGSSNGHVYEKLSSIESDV

Test system in one data set: not given
Experiment: not given
Conditions: not given
`Oc1ccc([C@H]2CC[C@H](NCCCCCc3ccccc3)CC2)cc1` (as salt: HCl) [Example 9, 4-[4-(5-Phenylpentylamino)cyclohexyl]phenol] came in with a melting point of 252 to 260 °C.

`COc1ccc(CCCN[C@H]2CC[C@H](c3ccc(O)cc3)CC2)cc1` (as salt: HCl) [Example 28, Trans-4-{4-[3-(4-methoxyphenyl)propylamino]cyclohexyl}phenol] returned a melting point of 235 to 241 °C.

As to `Oc1ccc([C@H]2CC[C@H](N(CCCc3ccccc3)Cc3ccccc3)CC2)cc1` (as salt: HCl) [Example 29, 4-{4-[benzyl(3-phenylpropyl)amino]cyclohexyl}phenol], the melting point was in the range of 259 to 264 °C.

`CCN(CCCc1ccccc1)[C@H]1CC[C@H](c2ccc(O)c(CN)c2)CC1` (as salt: HCl) [Example 31, 2-aminomethyl-4-{4-[ethyl(3-phenylpropyl)amino]cyclohexyl}phenol] came in with a melting point of 168 to 173 °C.

As for `Oc1ccc([C@H]2CC[C@H](NCCNc3ccccc3)CC2)cc1` (as salt: maleate) [Example 25, Trans-4-[4-(2-phenylaminoethylamino)cyclohexyl]phenol], the melting point was in the range of 180 to 184 °C.

Molecule `CCN(CCCc1ccccc1)[C@H]1CC[C@H](c2ccc(O)cc2)CC1` (as salt: salt) [Example 26, Trans-4-{4-[N-ethyl-N-(3-phenylpropyl)amino]cyclohexyl) phenol] registered a melting point of 192 to 194 °C.

For `CC(C)N(CCCc1ccccc1)[C@H]1CC[C@H](c2ccc(O)cc2)CC1` (as salt: salt) [Example 27, Trans-4-{4-[N-isopropyl-N-(3-phenylpropyl)amino]cyclohexyl}phenol], the melting point fell in the range of 146 to 154 °C.

Regarding `CN(CCOc1ccccc1)[C@H]1CC[C@H](c2ccc(O)cc2)CC1` (as salt: salt) [Example 30, 4-{4-[methyl(2-phenoxyethyl)amino]cyclohexyl}phenol], the melting point was in the range of 216 to 220 °C.

On to `Oc1ccc([C@H]2CC[C@@H](NCCCCc3ccccc3)CC2)cc1` [Example 1a, cis-4-[4-(4-Phenylbutylamino)cyclohexyl]phenol], for which the melting point was in the range of 128 to 131 °C.

`Oc1ccc([C@H]2CC[C@@H](NCCc3ccccc3)CC2)cc1` [Example 3a, cis-4-(4-Phenethylaminocyclohexyl)phenol] yielded a melting point of 155 to 160 °C.

The molecule `Oc1ccc([C@H]2CC[C@@H](NCc3ccccc3)CC2)cc1` [Example 4a, cis-4-(4-Benzylaminocyclohexyl)phenol] came in with a melting point of 107 to 110 °C.

On to `Oc1ccc([C@H]2CC[C@H](NCc3ccccc3)CC2)cc1` [Example 4b, trans-4-(4-Benzylaminocyclohexyl)phenol], for which the melting point fell in the range of 168 to 172 °C.

Take `C[C@H](CCc1ccccc1)N[C@H]1CC[C@H](c2ccc(O)cc2)CC1` [Example 6c, trans-4-[4-((R)-1-Methyl-3-phenylpropylamino)cyclohexyl]phenol]: the melting point is 152 to 160 °C.

Regarding `C[C@@H](CCc1ccccc1)N[C@H]1CC[C@H](c2ccc(O)cc2)CC1` [Example 6d, trans-4-[4-((S)-1-Methyl-3-phenylpropylamino)cyclohexyl]phenol], the melting point was 165 to 170 °C.

The next data set addresses NR1a/NR2B (Rattus norvegicus, UniProt P35439+Q00960). Description: Electrophysiological assay at NMDA receptor subunits expressed in Xenopus oocytes (two-electrode voltage clamp). The format is cell-based. The settings on record: Table 1; cloned rat NMDA receptor subunits in Xenopus oocytes; currents activated by glutamate (100 μM) and glycine (1-100 μM); read-out: NR1a/NR2B Oocyte IC50. As to the method:
The clones were transformed into appropriate host bacteria and plasmid preparations were made with conventional DNA purification techniques. A sample of each clone was linearized by restriction enzyme digestion […] was synthesized with T3 RNA polymerase. The cRNA was diluted to 400 ng/μL and stored in 1 μL aliquots at −80° C. until injection.
The Xenopus Oocyte Expression System. […] Follicle-enclosed oocytes were micro-injected with 1:1 mixtures of NR1A:NR2A, 2B or 2C.; injecting 1 to 10 ng of RNA encoding each receptor subunit. NR1A encoding RNA was injected alone at ˜20 ng. Oocytes were stored in Barth's medium containing (in mM): NaCl, 88; KCl, 1; CaCl2, 0.41; Ca (NO3)2, 0.33; MgSO4, 0.82; NaHCO3, 2.4; HEPES 5, pH 7.4, with 0.11 mg/ml gentamicin sulphate. While oocytes were still surrounded by enveloping ovarian tissues, the Barth's medium was supplemented with 0.1% bovine serum.
Drugs were applied by bath perfusion. Using oocytes expressing different subunit combinations of NMDA receptor, NMDA currents were activated by co-application of glutamate (100 μM) and glycine (1-100 μM). Inhibitory potency of the novel antagonists was assessed on responses elicited by fixed concentrations of glutamate and glycine, by measuring reductions in current induced by progressively increasing concentrations of antagonist.
Concentration-inhibition curves were fit with Equation 1. […] For incomplete curves analysis by fitting was unreliable and IC50 values were calculated by simple regression over linear portions of the curves (Origin: Microcal Software).
For `Oc1ccc([C@H]2CC[C@@H](NCCCCc3ccccc3)CC2)cc1` [Example 1a, cis-4-[4-(4-Phenylbutylamino)cyclohexyl]phenol], the IC50 is 900 nM.

`Oc1ccc([C@H]2CC[C@H](NCCCCc3ccccc3)CC2)cc1` [Example 1b, trans-4-[4-(4-Phenylbutylamino)cyclohexyl]phenol]: the IC50 was 35 nM.

As to `Oc1ccc([C@H]2CC[C@@H](NCCCc3ccccc3)CC2)cc1` [Example 2a, cis-4-[4-(3-Phenylpropylamino)cyclohexyl]phenol], the IC50 came to 600 nM.

Regarding `Oc1ccc([C@H]2CC[C@H](NCCCc3ccccc3)CC2)cc1` [Example 2b, trans-4-[4-(3-Phenylpropylamino)cyclohexyl]phenol], the IC50 worked out at 34 nM.

Regarding `Oc1ccc([C@H]2CC[C@@H](NCCc3ccccc3)CC2)cc1` [Example 3a, cis-4-(4-Phenethylaminocyclohexyl)phenol], the IC50 turned out to be 830 nM.

For the molecule `Oc1ccc([C@H]2CC[C@H](NCCc3ccccc3)CC2)cc1` [Example 3b, trans-4-(4-Phenethylamiocyclohexyl)phenol], the IC50 was found to be 450 nM.

With `Oc1ccc([C@H]2CC[C@@H](NCc3ccccc3)CC2)cc1` [Example 4a, cis-4-(4-Benzylaminocyclohexyl)phenol], the IC50 came out at 70000 nM.

Turning to `Oc1ccc([C@H]2CC[C@H](NCc3ccccc3)CC2)cc1` [Example 4b, trans-4-(4-Benzylaminocyclohexyl)phenol], the IC50 was found to be 43000 nM.

For the molecule `Oc1ccc([C@H]2CC[C@H](NCCCCCc3ccccc3)CC2)cc1` [Example 9, 4-[4-(5-Phenylpentylamino)cyclohexyl]phenol], the IC50 was determined as 350 nM.

The data set is the same for the next values; noted with them: Table 2; head names no subunit; electrophysiological assay results; read-out: IC50.
On to `CC(CCc1ccccc1)N[C@H]1CC[C@@H](c2ccc(O)cc2)CC1` (stereo partly drawn) [Example 6a, cis-4-[4-(1-Methyl-3-phenylpropylamino)cyclohexyl]phenol], for which the IC50 is 600 nM.

As to `CC(CCc1ccccc1)N[C@H]1CC[C@H](c2ccc(O)cc2)CC1` (stereo partly drawn) [Example 6b, trans-4-[4-(1-Methyl-3-phenylpropylamino)cyclohexyl]phenol], the IC50 stood at 100 nM.

In the case of `C[C@H](CCc1ccccc1)N[C@H]1CC[C@H](c2ccc(O)cc2)CC1` [Example 6c, trans-4-[4-((R)-1-Methyl-3-phenylpropylamino)cyclohexyl]phenol], the IC50 amounted to 60 nM.

As for `C[C@@H](CCc1ccccc1)N[C@H]1CC[C@H](c2ccc(O)cc2)CC1` [Example 6d, trans-4-[4-((S)-1-Methyl-3-phenylpropylamino)cyclohexyl]phenol], the IC50 was 70 nM.

Regarding `OC[C@@H](Cc1ccccc1)N[C@H]1CC[C@@H](c2ccc(O)cc2)CC1` [Example 10a, cis-4-[4-((R)-1-Hydroxymethyl-2-phenylethylamino)cyclohexyl]phenol], the IC50 was 29000 nM.

For `OC[C@@H](Cc1ccccc1)N[C@H]1CC[C@H](c2ccc(O)cc2)CC1` [Example 10b, trans-4-[4-((R)-1-Hydroxymethyl-2-phenylethylamino)cyclohexyl]phenol], the IC50 stood at 5000 nM.

For `Oc1ccc([C@H]2CC[C@@H](NCCOc3ccccc3)CC2)cc1` [Example 11a, cis-4-[4-(2-Phenoxyethylamino)cyclohexyl]phenol], the IC50 is 2000 nM.

For `Oc1ccc([C@H]2CC[C@H](NCCOc3ccccc3)CC2)cc1` [Example 11b, trans-4-[4-(2-Phenoxyethylamino)cyclohexyl]phenol], the IC50 stood at 20 nM.

With `Oc1ccc([C@H]2CC[C@H](NCC#Cc3ccccc3)CC2)cc1` [Example 23, Trans-4-[4-(3-phenylprop-2-ynylamino)cyclohexyl]phenol], the IC50 was 50 nM.

On to `Oc1ccc([C@H]2CC[C@H](NCCSc3ccccc3)CC2)cc1` [Example 24, 4-[4-(2-Phenylsulfanylethylamino)cyclohexyl]phenol], for which the IC50 was found to be 40 nM.

As to `Oc1ccc([C@H]2CC[C@H](NCCNc3ccccc3)CC2)cc1` [Example 25, Trans-4-[4-(2-phenylaminoethylamino)cyclohexyl]phenol], the IC50 was found to be 50 nM.

The same data set, now with this note: Table 3; cloned rat NMDA receptor subunits in Xenopus oocytes; read-out: NR1a/NR2B Oocyte IC50.
On to `Oc1ccc([C@H]2CC[C@@H](NCc3cccnc3)CC2)cc1` [Example 7a, cis-4-{4-[(Pyridin-3-ylmethyl)amino]cyclohexyl}phenol], for which the IC50 came to 135000 nM.

Consider `Oc1ccc([C@H]2CC[C@H](NCc3cccnc3)CC2)cc1` [Example 7b, trans-4-{4-[(Pyridin-3-ylmethyl)amino]cyclohexyl}phenol], for which the IC50 was found to be 100000 nM.

On to `Oc1ccc([C@H]2CC[C@@H](NCCCc3ccccn3)CC2)cc1` [Example 15a, cis-4-[4-(3-Pyridin-2-ylpropylamino)cyclohexyl]phenol], for which the IC50 stood at 11500 nM.

As for `Oc1ccc([C@H]2CC[C@H](NCCCc3ccccn3)CC2)cc1` [Example 15b, trans-4′-(3-Pyridin-2-ylpropylamino)cyclohexylphenol], the IC50 was found to be 530 nM.

The same data set, now with this note: Table 4; cloned rat NMDA receptor subunits in Xenopus oocytes; read-out: NR1a/NR2B Oocyte IC50.
Turning to `Oc1ccc([C@H]2CC[C@H](NCCc3ccc(F)cc3)CC2)cc1` [Example 5b, trans-4-{4-[2-(4-Fluorophenyl)ethylamino]cyclohexyl}phenol], the IC50 worked out at 750 nM.
